According to patent US9737505B2, “Prodrug of 1,1′-(1,6-dioxo-1,6-hexanediyl)bis-D-proline” (GlaxoSmithKline Intellectual Property Development Limited, priority 2014, dated 2017):
Where two headings read alike, the source gives them in different places.

Tests used:
[1] = Intestinal microsomal stability; assay type: in vitro ADME; conditions: 37° C., even after 60 minutes
Description: (§1) The assay was designed for determining stability of compound in microsomal matrix. Compound (Compound of Formula (I)) was dissolved in DMSO at 1 mg/ml. Daughter solution was prepared in methanol/water (50/50) at 30.3 ng/ml. Microsomes (from Xenotech) were diluted at 0.625 mg proteins per ml in phosphate buffer 50 mM pH 7.4.
Pre-Incubation consisted of warming microsomal solution 395 μl with 100 μl NaHCO3 (2%) at 37° C. for 7 min. Incubation was started with the addition of 5 μl of daughter solution. […]
(§2) After 10 min centrifugation at 4000 rpm, 2 μl of samples were injected into the liquid chromatography system and eluted on a Ascentis C18 column (50×2.1 mm id, 2.7 μm) with 0.1% formic acid in water (A) and 0.1% formic acid in acetonitrile (B), using the following 2 minute elution gradient: 5 to 95% B over 1.2 min, 95% B over 0.6 min and 0.1 min for re-equilibrate column, at 0.5 mL/min at 50° C.
Samples were analysed by Mass Spectrometry with an electrospray source, in positive mode and with following mass transitions: • Compound of Formula (I): 657 to 384 • Monoester of CPHPC: 499 to 226 • CPHPC: 341 to 226
Controls were made to calculate percentage of disappearance of parent but also appearance of suspected metabolite, i.e. monoester and diacidic form.

CYP2C9 = molecular target: T1, CYP2C9 (Homo sapiens, UniProt P11712); experiment: Cytochrome p450 inhibition assay (bactosomes, fluorogenic substrate FCA); assay type: biochemical; conditions: recombinant human CYP (Cypex bactosomes)
T1 construct: purchased Cypex; host or cells: bactosomes (bacterial membranes)
Description: (§3) The assay was designed to evaluate inhibition on cytochrome P450 (CYP) 3A4, 2C9, 2C19, 1A2 and 2D6 enzymes from bactosomes source using fluorogenic substrates. Compound (compound of Formula (I) or Comparator Compound) was dissolved in methanol at 1.65 mM. Daughter solutions were prepared in methanol at 660, 264, 106, 42, 17, 6.8, 2.7, 1.1 and 0.43 μM. NADPH cofactor was prepared with Glucose-6-phosphate (7.8 mg), Glucose-6-phosphate dehydrogenase (6 units), NADP (1.7 mg) per 1 mL in NaHCO3 2%. Substrate preparation was as follows: • 7-Methoxy-4-triFluoromethyl Coumarin-3-Acetic acid ethyl ester (FCA): 12.5 mM in acetonitrile • EthoxyResorufin (ER): 0.05 mM in acetonitrile • 4-MethylaminoMethyl-7-Methoxy Coumarin (MMC): 2.5 mM in methanol • 3-Butyryl-7Methoxy Coumarin (BMC): 2.5 mM in DMSO • 7-BenzyloxyQuinoline (7BQ): 2.5 mM in acetonitrile • DiEthoxyFluorescein (DEF): 0.1 mM in acetonitrile Bactosomes (Cypex source) at the concentration of 10 mg of protein per ml were diluted in phosphate buffer 50 mM pH7.4: • 0.33 ml of bactosomes CYP2C9 with 23.8 ml of buffer and 0.11 ml of FCA • 0.33 ml of bactosomes CYP1A2 with 23.6 ml of buffer and 0.275 ml of ER • 0.33 ml of bactosomes CYP2D6 with 23.8 ml of buffer and 0.11 ml of MMC • 0.33 ml of bactosomes CYP2C19 with 23.8 ml of buffer and 0.11 ml of BMC • 0.33 ml of bactosomes CYP3[…] with 23.6 ml of buffer and 0.275 ml of 7BQ • 0.33 ml of bactosomes CYP3[…] with 23.6 ml of buffer and 0.275 ml of DEF Pre-Incubation consisted in mixing 5 μl of compound solution with 220 μl diluted bactosomes and warming it at 37° C. for 10 min. Incubation was started with the addition of 25 μl of NADPH. […]

[2] = Solubility in aqueous media; assay type: physicochemical; conditions: for solubility at 4 h: thermodynamic from solid, read-out: Solubility at 4 hour timepoint
Description: A known quantity of the compound of Formula (I) was weighed into a suitable vessel (e.g. a screw capped clear glass vial) and a known volume of the required media added (e.g. Simulated Gastric Fluid pH 1.6[SGF], Simulated Fed State Intestinal Fluid pH 6.5 [FeSSIF], Simulated Fasted State Intestinal Fluid pH 6.5 [FaSSIF], Water [Purified Water], or Britton-Robinson buffer). The compound was wetted with the media by vortex mixing for 30 seconds to 1 minute. The sample was then visually observed to ensure that undissolved solid remained present. The sample was transferred to a gentle mixer (such as a roller mixer) and allowed to agitate until the desired time point was reached. At appropriate times the sample was reassessed visually. If all the solid had dissolved the solubility was recorded as >x mg/ml where x is the known weight used divided by the volume added. If undissolved solid remained a portion of the sample was taken and centrifuged to remove the solid leaving a clear supernatant. The supernatant was diluted volumetrically with a suitable diluent to provide an analytical sample of suitable concentration for analysis. This diluted sample was then analysed by a suitable method such as HPLC against a standard(s) of known concentration. The solubility of the compound can then be calculated using a knowledge of the concentration of the standard, the relative response (e.g. peak areas) of the standard and the analytical sample described, and the dilution of the analytical sample.

[3] = Physical stability (hydrolysis) in phosphate buffer at various pHs; assay type: physicochemical; conditions: acidic environment (pH less than 7.0), room temperature
Description: The assay was designed for determining physical stability of compound in buffer at various pHs. Compound of Formula (I) was dissolved in DMSO at 1 mg/ml. Phosphate buffer (PBS) was prepared by mixing K2HPO4 50 mM and KH2PO4 50 mM solutions to obtain 4 buffers at pH 6.0, 7.0, 7.5, 8.0.
Stability studies were conducted at room temperature, and were started by the addition of 8 μl of DMSO solution to 792 μl of PBS 50 mM at pH 6.0, 7.0, 7.5 or 8.0 (1% DMSO). 75 μl of mixture was taken at 0, 1, 2, 4 and 24 h and 225 μl acetonitrile containing internal standard was added.
as §2, with “2” for “After 10 min centrifugation at 4000 rpm, 2”, “eluted with” for “eluted on”, “μm) and” for “μm)”, “following elution” for “following”, “2 min” for “2 minute elution”
Samples were analysed by Mass Spectrometry with an electrospray source and in positive mode and with following mass transitions: • Compound of Formula (I): 657 to 384 • Monoester of CPHPC: 499 to 226 • CPHPC: 341 to 226

CYP2C19 = molecular target: T2, CYP2C19 (Homo sapiens, UniProt P33261); experiment: Cytochrome p450 inhibition assay (bactosomes, fluorogenic substrate BMC); assay type: biochemical; conditions: recombinant human CYP (Cypex bactosomes)
T2 construct: purchased Cypex; host or cells: bactosomes (bacterial membranes)
Description: as §3

[4] = Liver microsomal stability; assay type: in vitro ADME
Description: as §1
Pre-Incubation consisted of warming microsomal solution 395 μl with 100 μl NaHCO3 (2%) at 37° C. for 7 min. Incubation was started with the addition of 5 μl of daughter solution. 50 μl aliquots of mixture were taken at 0, 3, 6, 12 and 30 min and quenched with 150 μl acetonitrile containing internal standard.
as §2
Samples were analysed by Mass Spectrometry with an electrospray source, in positive mode and with following mass transitions: • Compound of Formula (I): 657 to 384 • Monoester of CPHPC: 499 to 226 • CPHPC: 341 to 226 […]
In vitro liver microsomal activity of was assessed using the protocol detailed above (Intestine and Liver Microsomal Assay protocol).

CYP1A2 = molecular target: T3, CYP1A2 (Homo sapiens, UniProt P05177); experiment: Cytochrome p450 inhibition assay (bactosomes, fluorogenic substrate ER); assay type: biochemical; conditions: recombinant human CYP (Cypex bactosomes)
T3 construct: purchased Cypex; host or cells: bactosomes (bacterial membranes)
T3 sequence (P05177 1-516): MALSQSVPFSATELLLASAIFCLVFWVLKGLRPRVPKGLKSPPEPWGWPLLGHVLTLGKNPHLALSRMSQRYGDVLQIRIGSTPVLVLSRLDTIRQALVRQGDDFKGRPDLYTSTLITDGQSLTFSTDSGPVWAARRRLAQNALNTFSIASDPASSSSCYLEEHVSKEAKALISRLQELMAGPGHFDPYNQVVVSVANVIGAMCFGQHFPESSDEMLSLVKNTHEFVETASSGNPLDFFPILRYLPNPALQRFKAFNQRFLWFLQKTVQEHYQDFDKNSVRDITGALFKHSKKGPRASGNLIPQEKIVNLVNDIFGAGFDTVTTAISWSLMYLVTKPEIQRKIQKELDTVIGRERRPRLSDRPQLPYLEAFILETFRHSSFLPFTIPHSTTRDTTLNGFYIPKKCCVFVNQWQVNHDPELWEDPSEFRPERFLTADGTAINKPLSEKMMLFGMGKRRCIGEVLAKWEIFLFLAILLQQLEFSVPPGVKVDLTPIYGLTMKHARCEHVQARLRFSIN
Description: as §3

CYP3A4 = molecular target: T4, CYP3A4 (Homo sapiens, UniProt P08684); experiment: Cytochrome p450 inhibition assay (bactosomes, fluorogenic substrates 7BQ and DEF); assay type: biochemical; conditions: recombinant human CYP (Cypex bactosomes)
T4 construct: purchased Cypex; host or cells: bactosomes (bacterial membranes)
Description: The assay was designed to evaluate inhibition on cytochrome P450 (CYP) 3A4, 2C9, 2C19, 1A2 and 2D6 enzymes from bactosomes source using fluorogenic substrates. Compound (compound of Formula (I) or Comparator Compound) was dissolved in methanol at 1.65 mM. Daughter solutions were prepared in methanol at 660, 264, 106, 42, 17, 6.8, 2.7, 1.1 and 0.43 μM. NADPH cofactor was prepared with Glucose-6-phosphate (7.8 mg), Glucose-6-phosphate dehydrogenase (6 units), NADP (1.7 mg) per 1 mL in NaHCO3 2%. Substrate preparation was as follows: • 7-Methoxy-4-triFluoromethyl Coumarin-3-Acetic acid ethyl ester (FCA): 12.5 mM in acetonitrile • EthoxyResorufin (ER): 0.05 mM in acetonitrile • 4-MethylaminoMethyl-7-Methoxy Coumarin (MMC): 2.5 mM in methanol • 3-Butyryl-7Methoxy Coumarin (BMC): 2.5 mM in DMSO • 7-BenzyloxyQuinoline (7BQ): 2.5 mM in acetonitrile • DiEthoxyFluorescein (DEF): 0.1 mM in acetonitrile Bactosomes (Cypex source) at the concentration of 10 mg of protein per ml were diluted in phosphate buffer 50 mM pH7.4: • 0.33 ml of bactosomes CYP2C9 with 23.8 ml of buffer and 0.11 ml of FCA • 0.33 ml of bactosomes CYP1A2 with 23.6 ml of buffer and 0.275 ml of ER • 0.33 ml of bactosomes CYP2D6 with 23.8 ml of buffer and 0.11 ml of MMC • 0.33 ml of bactosomes CYP2C19 with 23.8 ml of buffer and 0.11 ml of BMC • 0.33 ml of bactosomes CYP3[…] with 23.6 ml of buffer and 0.275 ml of 7BQ • 0.33 ml of bactosomes CYP3[…] with 23.6 ml of buffer and 0.275 ml of DEF Pre-Incubation consisted in mixing 5 μl of compound solution with 220 μl diluted bactosomes and warming it at 37° C. for 10 min. Incubation was started with the addition of 25 μl of NADPH. Then fluorescence of substrate metabolite was read in a SAFIRE instrument (from Tecan) for 5 min: • FCA (2C9): Excitation at 410 nm and Emission at 510 nm • ER (1A2): Excitation at 530 nm and Emission at 590 nm • MMC (2D6): Excitation at 410 nm and Emission at 485 nm • BMC (2C19): Excitation at 410 nm and Emission at 465 nm • 7BQ (3A4H): Excitation at 410 nm and Emission at 530 nm • DEF (3A4L): Excitation at 485 nm and Emission at 530 nm Plotting of inhibition of substrate production against compound concentration allowed the determination of IC50 values.

CYP2D6 = molecular target: T5, CYP2D6 (Homo sapiens, UniProt P10635); experiment: Cytochrome p450 inhibition assay (bactosomes, fluorogenic substrate MMC); assay type: biochemical; conditions: recombinant human CYP (Cypex bactosomes)
T5 construct: purchased Cypex; host or cells: bactosomes (bacterial membranes)
Description: as §3

[5] = substrate 7BQ, read-out: IC50 CYP3A4 (7BQ)
[6] = substrate DEF, read-out: IC50 CYP3A4 (DEF)

T4 sequence (P08684 whole entry): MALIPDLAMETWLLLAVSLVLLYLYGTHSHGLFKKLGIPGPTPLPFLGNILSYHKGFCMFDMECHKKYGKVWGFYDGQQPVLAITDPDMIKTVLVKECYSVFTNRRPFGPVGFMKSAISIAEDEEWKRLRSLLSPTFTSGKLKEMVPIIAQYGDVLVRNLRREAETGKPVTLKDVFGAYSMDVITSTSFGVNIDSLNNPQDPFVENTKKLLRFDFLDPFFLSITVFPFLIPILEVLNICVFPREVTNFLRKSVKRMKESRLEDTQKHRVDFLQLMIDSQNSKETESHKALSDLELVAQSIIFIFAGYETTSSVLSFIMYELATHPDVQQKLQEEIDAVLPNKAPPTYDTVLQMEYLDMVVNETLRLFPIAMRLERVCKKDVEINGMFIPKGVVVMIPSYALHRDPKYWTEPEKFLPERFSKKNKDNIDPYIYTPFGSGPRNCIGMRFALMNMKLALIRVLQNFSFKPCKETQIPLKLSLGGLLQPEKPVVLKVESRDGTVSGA
T1 sequence (P11712 whole entry): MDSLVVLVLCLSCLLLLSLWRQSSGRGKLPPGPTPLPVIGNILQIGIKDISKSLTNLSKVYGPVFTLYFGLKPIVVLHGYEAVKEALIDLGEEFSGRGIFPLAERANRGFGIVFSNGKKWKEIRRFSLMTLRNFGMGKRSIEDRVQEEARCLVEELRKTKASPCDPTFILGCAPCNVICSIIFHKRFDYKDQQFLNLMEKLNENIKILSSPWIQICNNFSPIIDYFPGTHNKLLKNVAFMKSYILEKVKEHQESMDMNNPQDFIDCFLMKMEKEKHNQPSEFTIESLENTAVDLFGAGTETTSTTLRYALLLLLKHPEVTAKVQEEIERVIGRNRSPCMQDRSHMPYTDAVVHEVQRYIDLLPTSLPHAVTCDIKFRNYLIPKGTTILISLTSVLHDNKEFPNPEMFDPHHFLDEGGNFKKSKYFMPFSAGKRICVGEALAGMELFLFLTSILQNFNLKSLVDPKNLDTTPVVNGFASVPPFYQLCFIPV
T2 sequence (P33261 whole entry): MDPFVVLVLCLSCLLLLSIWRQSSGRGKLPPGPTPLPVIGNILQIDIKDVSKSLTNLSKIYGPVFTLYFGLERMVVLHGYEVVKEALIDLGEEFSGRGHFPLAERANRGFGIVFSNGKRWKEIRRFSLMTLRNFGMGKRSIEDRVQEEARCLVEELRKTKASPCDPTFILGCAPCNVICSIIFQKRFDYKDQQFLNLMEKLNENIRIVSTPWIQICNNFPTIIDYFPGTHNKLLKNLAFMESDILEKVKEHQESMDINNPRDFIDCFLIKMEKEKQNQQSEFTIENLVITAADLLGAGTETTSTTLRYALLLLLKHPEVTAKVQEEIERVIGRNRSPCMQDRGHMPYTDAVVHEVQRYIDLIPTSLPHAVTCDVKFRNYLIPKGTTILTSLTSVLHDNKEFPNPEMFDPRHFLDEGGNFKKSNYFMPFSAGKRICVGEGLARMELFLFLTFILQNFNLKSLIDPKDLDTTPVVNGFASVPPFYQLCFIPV
T5 sequence (P10635 whole entry): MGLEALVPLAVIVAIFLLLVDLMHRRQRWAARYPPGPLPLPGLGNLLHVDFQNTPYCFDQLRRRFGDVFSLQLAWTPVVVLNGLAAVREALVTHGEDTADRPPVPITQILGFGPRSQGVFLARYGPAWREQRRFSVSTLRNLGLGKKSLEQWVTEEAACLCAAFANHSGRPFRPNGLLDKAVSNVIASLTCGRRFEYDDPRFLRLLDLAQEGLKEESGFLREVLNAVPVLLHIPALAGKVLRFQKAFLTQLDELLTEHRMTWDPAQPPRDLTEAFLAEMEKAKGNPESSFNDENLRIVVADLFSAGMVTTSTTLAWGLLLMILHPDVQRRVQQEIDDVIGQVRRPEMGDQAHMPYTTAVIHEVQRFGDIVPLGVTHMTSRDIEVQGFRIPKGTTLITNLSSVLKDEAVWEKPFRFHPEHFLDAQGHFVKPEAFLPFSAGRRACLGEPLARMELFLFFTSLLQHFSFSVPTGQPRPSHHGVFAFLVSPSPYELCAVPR

SMILES	Rate of hydrolysis in human intestinal microsomes [1]	IC50 (CYP2C9) [µM]	Solubility in biologically relevant media ([2]; biologically relevant media)	solubility at 4 h ([2]; FaSSIF (Simulated Fasted State Intestinal Fluid pH 6.5)) [µg/mL]	solubility at 4 h ([2]; FeSSIF (Simulated Fed State Intestinal Fluid pH 6.5)) [µg/mL]	solubility at 4 h ([2]; SGF (Simulated Gastric Fluid pH 1.6)) [µg/mL]	solubility at 4 h ([2]; water (purified water), Water) [µg/mL]	Compound hydrolysed after 24 h [3]	IC50 (CYP2C19) [µM]	Rate of hydrolysis to CPHPC in human liver microsomes [4]	IC50 (CYP1A2) [µM]	IC50 (CYP3A4; [5]) [µM]	IC50 (CYP3A4; [6]) [µM]	IC50 (CYP2D6) [µM]
O=C(OCOC(=O)[C@H]1CCCN1C(=O)CCCCC(=O)N1CCC[C@@H]1C(=O)OCOC(=O)OC1CCOCC1)OC1CCOCC1 [Compound of Formula (I), (2R,2′R)-Bis(((((tetrahydro-2H-pyran-4-yl)oxy)carbonyl)oxy)methyl) 1,1′-adipoylbis(pyrrolidine-2-carboxylate)]	low rate of hydrolysis	> 33	highly soluble	4400	5000	5200	5500	Less than 20%	> 33	high rate of hydrolysis	> 33	> 33	> 33	> 33
O=C(OCOC(=O)[C@H]1CCCN1C(=O)CCCCC(=O)N1CCC[C@@H]1C(=O)O)OC1CCOCC1 [mono-ester derivative, (R)-1-(6-oxo-6-((R)-2-((((((tetrahydro-2H-pyran-4-yl)oxy)carbonyl)oxy)methoxy)carbonyl)pyrrolidin-1-yl)hexanoyl)pyrrolidine-2-carboxylic acid]	–	> 33	–	–	–	–	–	–	> 33	–	> 33	> 33	> 33	> 33
